Assay results published in patent US10517870B2, “Aryl substituted bicycle heteroaryl compounds” (Bristol-Myers Squibb Company, priority 2015, dated 2019).

Experiments:
Caski (HPV16+) cells = assay: Cell proliferation/viability assay, Caski cells; type: cell-based; conditions: Homo sapiens, Ca-Ski, 96 h, 4 days
How it was run: (§1)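 Cells plated in antibiotic-free growth medium, compound added 2 h later (0.5% DMSO final) and incubated 4 days at 37 °C. Viability by CellTiter Blue (ex 530/em 590 nm) or CellTiter Glo luminescence; IC50 from four-parameter logistic fit of % inhibition.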

Saos-2 (HPV−) cells = assay: Cell proliferation/viability assay, Saos-2 cells; type: cell-based; conditions: Homo sapiens, SAOS-2, 96 h, read-out: Saos-2 (HPV−) Proliferation IC50 (μM)
How it was run: as §1

COc1ccc(-c2cc(C)cc3nc(OC(F)F)cnc23)cc1 [Example 6, 2-(difluoromethoxy)-5-(4-methoxyphenyl)-7-methylquinoxaline]
IC50 (Caski (HPV16+) cells): 7.1 µM | IC50 (Saos-2 (HPV−) cells): 48 µM
